Paper PMC11528321 (RSC Medicinal Chemistry, 2024)
“Also recorded” adds a separate entry of the source.

Experiments:
OE33 and FLO-1 cells = test: Antiproliferative screening, both OC cell lines together; type: cell-based, human; conditions: for antiproliferative activity (in words): dose range 0.003-30 μM
AXL = molecular target: T1, AXL (Homo sapiens, UniProt P30530); test: 33PanQinase kinome profiling; type: biochemical; conditions: 1 μM
T1 sequence (P30530 26-894): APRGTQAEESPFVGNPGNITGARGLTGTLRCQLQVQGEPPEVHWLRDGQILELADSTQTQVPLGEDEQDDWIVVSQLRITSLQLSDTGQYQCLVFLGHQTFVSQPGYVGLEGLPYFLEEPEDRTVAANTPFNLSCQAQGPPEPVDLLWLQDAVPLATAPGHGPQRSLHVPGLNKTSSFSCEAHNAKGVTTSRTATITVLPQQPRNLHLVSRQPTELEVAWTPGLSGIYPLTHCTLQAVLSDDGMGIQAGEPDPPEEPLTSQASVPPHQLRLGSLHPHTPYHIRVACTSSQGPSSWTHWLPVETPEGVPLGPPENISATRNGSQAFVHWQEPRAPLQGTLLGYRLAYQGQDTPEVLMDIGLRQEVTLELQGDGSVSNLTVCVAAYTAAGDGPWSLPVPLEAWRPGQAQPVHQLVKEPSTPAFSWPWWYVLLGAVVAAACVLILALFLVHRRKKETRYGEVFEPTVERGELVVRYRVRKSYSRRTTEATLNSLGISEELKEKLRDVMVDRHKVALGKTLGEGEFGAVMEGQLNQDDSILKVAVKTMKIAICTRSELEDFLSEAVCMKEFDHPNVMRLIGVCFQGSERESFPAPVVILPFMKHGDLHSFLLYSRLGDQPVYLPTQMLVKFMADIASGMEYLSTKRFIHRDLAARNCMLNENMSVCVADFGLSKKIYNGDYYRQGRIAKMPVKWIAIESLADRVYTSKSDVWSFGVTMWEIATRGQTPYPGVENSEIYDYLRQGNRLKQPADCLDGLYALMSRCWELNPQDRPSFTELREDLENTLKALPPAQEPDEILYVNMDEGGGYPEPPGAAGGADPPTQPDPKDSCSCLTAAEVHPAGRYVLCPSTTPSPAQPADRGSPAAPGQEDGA

AuroraA = molecular target: T2, AuroraA (Homo sapiens, UniProt O14965); test: 33PanQinase kinome profiling; type: biochemical; conditions: mean, respect to DMSO control
T2 sequence (O14965 1-403): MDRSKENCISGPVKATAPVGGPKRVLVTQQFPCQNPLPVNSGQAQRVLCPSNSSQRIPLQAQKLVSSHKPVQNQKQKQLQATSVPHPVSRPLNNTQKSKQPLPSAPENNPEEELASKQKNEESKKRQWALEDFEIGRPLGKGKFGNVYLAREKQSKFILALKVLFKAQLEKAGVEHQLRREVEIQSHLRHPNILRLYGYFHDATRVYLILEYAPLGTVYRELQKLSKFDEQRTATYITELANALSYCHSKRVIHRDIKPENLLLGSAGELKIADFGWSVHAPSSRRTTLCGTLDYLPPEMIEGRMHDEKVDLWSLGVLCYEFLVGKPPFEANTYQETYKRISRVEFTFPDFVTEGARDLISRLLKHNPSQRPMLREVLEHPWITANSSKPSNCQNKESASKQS

[1] = molecular target: T3, Nano-Luc-Aurora A (fusion vector) in HEK293 (Homo sapiens, UniProt O14965); test: NanoBRET target engagement assay; type: cell-based; conditions: HEK293, 1 h treatment, 0.001-100 µM
T3 sequence (O14965 1-403): T2 sequence (O14965 1-403)

OE33 cells = test: Cell cycle assay; type: cell-based, human; conditions: 3 μM, 72 h, vs DMSO control
FLO-1 cells = test: Cell cycle assay; type: cell-based, human; conditions: 3 μM, 72 h, vs DMSO control
FLT3 = molecular target: T4, FLT3 (Homo sapiens, UniProt P36888); test: 33PanQinase kinome profiling; type: biochemical; conditions: mean, respect to DMSO control
T4 sequence (P36888 564-993 limits assumed): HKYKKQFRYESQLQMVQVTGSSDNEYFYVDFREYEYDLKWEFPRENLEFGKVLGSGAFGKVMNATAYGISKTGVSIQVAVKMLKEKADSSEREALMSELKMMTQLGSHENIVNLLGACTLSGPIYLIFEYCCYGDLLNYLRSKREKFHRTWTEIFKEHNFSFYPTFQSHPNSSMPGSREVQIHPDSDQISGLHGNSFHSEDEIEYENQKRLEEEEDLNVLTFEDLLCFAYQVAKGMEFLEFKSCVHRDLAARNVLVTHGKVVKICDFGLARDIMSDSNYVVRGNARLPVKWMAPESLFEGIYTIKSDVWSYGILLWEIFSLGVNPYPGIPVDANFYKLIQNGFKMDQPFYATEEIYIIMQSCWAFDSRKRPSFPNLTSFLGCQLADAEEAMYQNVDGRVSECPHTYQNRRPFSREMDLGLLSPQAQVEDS

RET = RET (Homo sapiens, UniProt P07949); test: 33PanQinase kinome profiling; type: biochemical; conditions: mean, respect to DMSO control
Chain of RET (P07949 29-1114): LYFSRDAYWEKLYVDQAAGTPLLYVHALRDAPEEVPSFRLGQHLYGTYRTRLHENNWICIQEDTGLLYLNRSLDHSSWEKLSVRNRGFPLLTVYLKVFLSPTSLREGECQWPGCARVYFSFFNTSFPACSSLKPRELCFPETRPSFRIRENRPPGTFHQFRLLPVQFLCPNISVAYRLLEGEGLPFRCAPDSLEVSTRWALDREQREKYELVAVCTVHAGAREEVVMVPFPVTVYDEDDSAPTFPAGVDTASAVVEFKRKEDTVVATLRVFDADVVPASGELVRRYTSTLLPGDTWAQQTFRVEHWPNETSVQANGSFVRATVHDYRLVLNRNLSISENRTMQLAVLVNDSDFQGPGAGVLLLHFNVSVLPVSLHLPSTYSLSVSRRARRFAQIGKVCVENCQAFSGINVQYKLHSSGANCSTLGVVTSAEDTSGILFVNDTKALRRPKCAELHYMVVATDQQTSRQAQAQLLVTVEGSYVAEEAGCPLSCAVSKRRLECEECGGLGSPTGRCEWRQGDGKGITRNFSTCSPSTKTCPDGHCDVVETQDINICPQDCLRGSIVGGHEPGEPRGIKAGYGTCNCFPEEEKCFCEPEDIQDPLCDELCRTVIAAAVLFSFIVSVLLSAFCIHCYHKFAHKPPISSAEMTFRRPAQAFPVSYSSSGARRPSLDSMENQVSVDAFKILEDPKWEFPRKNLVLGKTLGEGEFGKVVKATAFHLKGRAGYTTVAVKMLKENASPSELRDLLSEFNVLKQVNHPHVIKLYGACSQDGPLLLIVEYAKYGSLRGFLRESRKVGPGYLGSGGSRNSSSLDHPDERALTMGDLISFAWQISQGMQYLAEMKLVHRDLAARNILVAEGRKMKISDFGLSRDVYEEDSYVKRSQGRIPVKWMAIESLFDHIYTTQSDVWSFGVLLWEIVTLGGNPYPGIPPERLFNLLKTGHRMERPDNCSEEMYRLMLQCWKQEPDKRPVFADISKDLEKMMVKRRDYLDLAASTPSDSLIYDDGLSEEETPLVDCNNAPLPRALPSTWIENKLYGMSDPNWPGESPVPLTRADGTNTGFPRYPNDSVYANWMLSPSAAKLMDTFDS

CNc1ncc2c(/C=C/C(=O)O)nn(CC3CCCC3)c2n1 [compound 12]
antiproliferative activity (in words) (OE33 and FLO-1 cells): lack of activity

CNc1ncc2c(/C=C/C(=O)N3CCC(OC)CC3)nn(Cc3cccc(C(F)(F)F)c3)c2n1 [2D7, (2E)-1-(4-Methoxypiperidin-1-yl)-3-[6-(methylamino)-1-{[3-(trifluoromethyl)phenyl]methyl}-1H-pyrazolo[3,4-d]pyrimidin-3-yl]prop-2-en-1-one]
inhibition of AXL (in words) (AXL): minimal to no inhibition | % Inhibition [1uM] (AuroraA): > 50% | AURKA target engagement in cells (in words) [1]: direct dose-dependent binding | effect on the cell cycle (in words) (OE33 cells): rapid arrest of cells in the G2/M phase; also recorded: slight increase in the number of cells in the sub-G1 phase | effect on the cell cycle (in words) (FLO-1 cells): enrichment of cells in the S and G2/M phases | % Inhibition [1uM] (FLT3): minimal to no inhibition | % Inhibition [1uM] (RET): minimal to no inhibition

Nc1ncnc2c1c(/C=C/C(=O)O)nn2CC1CCCC1 [compound 10]
antiproliferative activity (in words) (OE33 and FLO-1 cells): lack of activity

COC1CCN(C(=O)/C=C/c2nn(CC3CCCC3)c3ncnc(N)c23)CC1 [1A7]
antiproliferative activity (in words) (OE33 and FLO-1 cells): completely inactive

CNc1ncc2c(/C=C/C(=O)N3CCC4(CC3)OCCO4)nn(Cc3cccc(C)c3)c2n1 [2C4]
fold increase in antiproliferative potency over 2B10 (OE33 and FLO-1 cells; compared with 2B10): 2 fold
